In patent US9663478B2, “Benzotriazine oxides as drugs targeting Mycobacterium tuberculosis” (priority 2011, dated 2017):
Values after ≈ are worked out from the molar mass of the structure shown.

Experiments:
H37Rv = test: MIC H37Rv (Table E1, Additional BTO Activity Data); assay type: cell-based; details: Mycobacterium tuberculosis
OFX-R = test: MIC OFX-R (Table E1); assay type: cell-based
[1] = MP MTT % viable (Table E1); details: MP (so in the source)
RMP-R = test: MIC RMP-R (Table E1); assay type: cell-based
INH-r = test: MIC INH-r (Table E1); assay type: cell-based

| Compound | MIC (H37Rv) [µg/mL] | MIC (OFX-R) [µg/mL] | viability at 0.01 ug/ml [1] [%] | viability at 0.1 ug/ml [1] [%] | viability at 1 ug/ml [1] [%] | MIC (RMP-R) [µg/mL] | MIC (INH-r) [µg/mL] |
| --- | --- | --- | --- | --- | --- | --- | --- |
| CN(Cc1ccccn1)c1n[n+]([O-])c2cc3c(cc2[n+]1[O-])CCC3 [Cmpd 2] | 1 (≈ 3.09 µM) | – | – | – | – | – | – |
| CN(c1n[n+]([O-])c2cc3c(cc2[n+]1[O-])CCC3)C1(c2ccc(F)cc2)CC1 [Cmpd 4] | 4.6 (≈ 12.6 µM) | – | – | – | – | – | – |
| CC(C)(Nc1n[n+]([O-])c2cc3c(cc2[n+]1[O-])CCC3)c1ccc(F)cc1 [Cmpd 5] | 4.4 (≈ 12.4 µM) | – | – | – | – | – | – |
| CCNc1n[n+]([O-])c2c(Cl)c(OC)ccc2[n+]1[O-] [Cmpd 6] | 0.4 (≈ 1.48 µM) | – | – | – | – | – | – |
| [O-][n+]1nc(NC2(c3ccc(F)cc3)CC2)[n+]([O-])c2cc3c(cc21)CCC3 [Cmpd 7] | 17.6 (≈ 49.9 µM) | – | – | – | – | – | – |
| COc1cccc(C2CCN(c3n[n+]([O-])c4cc5c(cc4[n+]3[O-])CCC5(C)C)C2)c1OC (centres unmarked) [Cmpd 8] | 0.7 (≈ 1.6 µM) | – | – | – | – | – | – |
| CC1(C)CCc2cc3c(cc21)[n+]([O-])nc(N1CCCC1)[n+]3[O-] [Cmpd 9] | 0.5 (≈ 1.66 µM) | – | – | – | – | – | – |
| [O-][n+]1nc(N2CC3CCCC3C2)[n+]([O-])c2cc3c(cc21)CCC3 (centres unmarked) [Cmpd 10] | 0.391 (≈ 1.25 µM) | 0.195 (≈ 0.624 µM) | 103 | 94 | 107 | 0.098 (≈ 0.314 µM) | 0.391 (≈ 1.25 µM) |
| CN(Cc1ccc(C(F)(F)F)cc1)c1n[n+]([O-])c2cc3c(cc2[n+]1[O-])CCC3 [Cmpd 11] | 0.098 (≈ 0.251 µM) | 0.024 (≈ 0.0615 µM) | 113 | 108 | 104 | 0.024 (≈ 0.0615 µM) | 0.195 (≈ 0.5 µM) |
| COc1ccc(CN(C)c2n[n+]([O-])c3cc4c(cc3[n+]2[O-])CCC4)cc1 [Cmpd 12] | 0.391 (≈ 1.11 µM) | 0.195 (≈ 0.553 µM) | 121 | 94 | 88 | 0.098 (≈ 0.278 µM) | 0.098 (≈ 0.278 µM) |
| [O-][n+]1nc(N2CCC(c3ccccc3F)C2)[n+]([O-])c2cc3c(cc21)CCC3 (centres unmarked) [Cmpd 13] | 0.098 (≈ 0.267 µM) | 0.024 (≈ 0.0655 µM) | 161 | 123 | 102 | 0.049 (≈ 0.134 µM) | 0.098 (≈ 0.267 µM) |
